Source: ChEMBL document CHEMBL1275576, “In vitro activity of tomopenem (CS-023/RO4908463) against anaerobic bacteria” (Antimicrob Agents Chemother, 2009)

How the values were obtained:
Type in all cases: functional
[1] = Antimicrobial activity against Parabacteroides distasonis ATCC 8503 by agar dilution method in presence of 5% laked sheep blood
Bacteroides ovatus = test: Antimicrobial activity against Bacteroides ovatus ATCC 8483 by agar dilution method in presence of 5% laked sheep blood
Bacteroides uniformis [2] = test: Antimicrobial activity against Bacteroides uniformis ATCC 8492 by agar dilution method in presence of 5% laked sheep blood
Campylobacter gracilis = test: Antimicrobial activity against Campylobacter gracilis JCM 8538 by agar dilution method in presence of 5% laked sheep blood
[3] = system: Sutterella wadsworthensis; test: Antimicrobial activity against Sutterella wadsworthensis ATCC 51579 by agar dilution method in presence of 5% laked sheep blood
[4] = system: Prevotella melaninogenica; test: Antimicrobial activity against Prevotella melaninogenica JCM 6325 by agar dilution method in presence of 5% laked sheep blood; settings: ATCC 25845
Prevotella denticola = test: Antimicrobial activity against Prevotella denticola GAI 5490 by agar dilution method in presence of 5% laked sheep blood
Fusobacterium nucleatum = test: Antimicrobial activity against Fusobacterium nucleatum ATCC 25586 by agar dilution method in presence of 5% laked sheep blood
[5] = system: Fusobacterium necrophorum; test: Antimicrobial activity against Fusobacterium necrophorum ATCC 25286 by agar dilution method in presence of 5% laked sheep blood
[6] = Antimicrobial activity against Veillonella dispar ATCC 17748 by agar dilution method in presence of 5% laked sheep blood
Bacteroides fragilis [7] = test: Antimicrobial activity against Bacteroides fragilis by agar dilution method in presence of 5% laked sheep blood
[8] = system: Parabacteroides distasonis; test: Antimicrobial activity against Parabacteroides distasonis by agar dilution method in presence of 5% laked sheep blood
Bacteroides uniformis [9] = test: Antimicrobial activity against Bacteroides uniformis by agar dilution method in presence of 5% laked sheep blood
Phocaeicola vulgatus = test: Antimicrobial activity against Bacteroides vulgatus by agar dilution method in presence of 5% laked sheep blood
Bacteroides caccae = test: Antimicrobial activity against Bacteroides caccae by agar dilution method in presence of 5% laked sheep blood
Bacteroides stercoris = test: Antimicrobial activity against Bacteroides stercoris by agar dilution method in presence of 5% laked sheep blood
Odoribacter splanchnicus = test: Antimicrobial activity against Odoribacter splanchnicus by agar dilution method in presence of 5% laked sheep blood
Prevotella intermedia = test: Antimicrobial activity against Prevotella intermedia by agar dilution method in presence of 5% laked sheep blood
Prevotella sp. = test: Antimicrobial activity against Prevotella sp. by agar dilution method in presence of 5% laked sheep blood
[10] = system: Fusobacterium necrophorum; test: Antimicrobial activity against Fusobacterium necrophorum by agar dilution method in presence of 5% laked sheep blood
Fusobacterium varium = test: Antimicrobial activity against Fusobacterium varium by agar dilution method in presence of 5% laked sheep blood
Fusobacterium sp. = test: Antimicrobial activity against Fusobacterium sp. by agar dilution method in presence of 5% laked sheep blood
[11] = system: Desulfovibrio desulfuricans; test: Antimicrobial activity against Desulfovibrio desulfuricans by agar dilution method in presence of 5% laked sheep blood
Finegoldia magna = test: Antimicrobial activity against Finegoldia magna by agar dilution method in presence of 5% laked sheep blood
Parvimonas micra = test: Antimicrobial activity against Parvimonas micra by agar dilution method in presence of 5% laked sheep blood
[12] = system: Peptostreptococcus anaerobius; test: Antimicrobial activity against Peptostreptococcus anaerobius by agar dilution method in presence of 5% laked sheep blood
[13] = system: Peptoniphilus asaccharolyticus; test: Antimicrobial activity against Peptoniphilus asaccharolyticus by agar dilution method in presence of 5% laked sheep blood
Eggerthella lenta [14] = test: Antimicrobial activity against Eggerthella lenta by agar dilution method in presence of 5% laked sheep blood
Eubacterium limosum = test: Antimicrobial activity against Eubacterium limosum by agar dilution method in presence of 5% laked sheep blood
Clostridioides difficile [15] = test: Antimicrobial activity against Clostridium difficile by agar dilution method in presence of 5% laked sheep blood
Clostridium perfringens [16] = test: Antimicrobial activity against Clostridium perfringens by agar dilution method in presence of 5% laked sheep blood
Atopobium parvulum = test: Antimicrobial activity against Atopobium parvulum VPI 0546 by agar dilution method in presence of 5% laked sheep blood; settings: Lancefieldella parvula
[17] = system: Staphylococcus saccharolyticus; test: Antimicrobial activity against Staphylococcus saccharolyticus ATCC 14953 by agar dilution method in presence of 5% laked sheep blood
[18] = system: Streptococcus constellatus; test: Antimicrobial activity against Streptococcus constellatus ATCC 27923 by agar dilution method in presence of 5% laked sheep blood
Clostridioides difficile [19] = test: Antimicrobial activity against Clostridium difficile GAI 10029 by agar dilution method in presence of 5% laked sheep blood
Clostridium perfringens [20] = test: Antimicrobial activity against Clostridium perfringens ATCC 13124 by agar dilution method in presence of 5% laked sheep blood
[21] = system: Paeniclostridium sordellii; test: Antimicrobial activity against Clostridium sordellii ATCC 9714 by agar dilution method in presence of 5% laked sheep blood; settings: Paraclostridium sordellii
[22] = Antimicrobial activity against Bifidobacterium adolescentis ATCC 15703 by agar dilution method in presence of 5% laked sheep blood
Bifidobacterium breve = test: Antimicrobial activity against Bifidobacterium breve ATCC 15700 by agar dilution method in presence of 5% laked sheep blood
Eggerthella lenta [23] = test: Antimicrobial activity against Eggerthella lenta ATCC 25559 by agar dilution method in presence of 5% laked sheep blood
Cutibacterium acnes = test: Antimicrobial activity against Propionibacterium acnes ATCC 11828 by agar dilution method in presence of 5% laked sheep blood
[24] = system: Lactiplantibacillus plantarum; test: Antimicrobial activity against Lactobacillus plantarum JCM 1149 by agar dilution method in presence of 5% laked sheep blood
[25] = system: Limosilactobacillus reuteri; test: Antimicrobial activity against Lactobacillus reuteri JCM 1112 by agar dilution method in presence of 5% laked sheep blood
Bacteroides fragilis [26] = test: Antimicrobial activity against Bacteroides fragilis GAI 5562 by agar dilution method in presence of 5% laked sheep blood
Bacteroides fragilis [27] = test: Antimicrobial activity against Bacteroides fragilis GAI 10150 by agar dilution method in presence of 5% laked sheep blood

Structure (SMILES): C[C@@H](O)[C@H]1C(=O)N2C(C(=O)O)=C(S[C@@H]3CN[C@H](C(=O)N(C)C)C3)[C@H](C)[C@H]12 [MEROPENEM]
- MIC [1]: 0.125 µg/mL
- MIC (Bacteroides ovatus): 0.25 µg/mL
- MIC (Bacteroides uniformis [2]): 0.125 µg/mL
- MIC (Campylobacter gracilis): 0.06 µg/mL
- MIC [3]: 0.06 µg/mL
- MIC [4]: 0.125 µg/mL
- MIC (Prevotella denticola): 0.06 µg/mL
- MIC (Fusobacterium nucleatum): 8 µg/mL
- MIC [5]: ≤ 0.015 µg/mL
- MIC [6]: 0.03 µg/mL
- MIC50 (Bacteroides fragilis [7]): 0.25 µg/mL
- MIC90 (Bacteroides fragilis [7]): 0.5 µg/mL
- MIC50 [8]: 0.25 µg/mL
- MIC90 [8]: 4 µg/mL
- MIC50 (Bacteroides uniformis [9]): 0.25 µg/mL
- MIC90 (Bacteroides uniformis [9]): 4 µg/mL
- MIC50 (Phocaeicola vulgatus): 0.25 µg/mL
- MIC90 (Phocaeicola vulgatus): 4 µg/mL
- MIC50 (Bacteroides caccae): 0.25 µg/mL
- MIC90 (Bacteroides caccae): 4 µg/mL
- MIC50 (Bacteroides stercoris): 0.25 µg/mL
- MIC90 (Bacteroides stercoris): 4 µg/mL
- MIC50 (Odoribacter splanchnicus): 0.25 µg/mL
- MIC90 (Odoribacter splanchnicus): 4 µg/mL
- MIC50 (Prevotella intermedia): 0.06 µg/mL
- MIC90 (Prevotella intermedia): 0.125 µg/mL
- MIC50 (Prevotella sp.): 0.125 µg/mL
- MIC90 (Prevotella sp.): 0.25 µg/mL
- MIC50 [10]: 0.03 µg/mL
- MIC90 [10]: 0.125 µg/mL
- MIC50 (Fusobacterium varium): 0.03 µg/mL
- MIC90 (Fusobacterium varium): 0.125 µg/mL
- MIC50 (Fusobacterium sp.): 0.03 µg/mL
- MIC90 (Fusobacterium sp.): 0.125 µg/mL
- MIC50 [11]: 0.06 µg/mL
- MIC90 [11]: 0.125 µg/mL
- MIC50 (Finegoldia magna): 0.125 µg/mL
- MIC90 (Finegoldia magna): 0.125 µg/mL
- MIC50 (Parvimonas micra): 0.06 µg/mL
- MIC90 (Parvimonas micra): 0.125 µg/mL
- MIC50 [12]: 0.25 µg/mL
- MIC90 [12]: 2 µg/mL
- MIC50 [13]: ≤ 0.015 µg/mL
- MIC90 [13]: 0.125 µg/mL
- MIC50 (Eggerthella lenta [14]): 0.5 µg/mL
- MIC90 (Eggerthella lenta [14]): 1 µg/mL
- MIC50 (Eubacterium limosum): 0.5 µg/mL
- MIC90 (Eubacterium limosum): 1 µg/mL
- MIC50 (Clostridioides difficile [15]): 2 µg/mL
- MIC90 (Clostridioides difficile [15]): 4 µg/mL
- MIC50 (Clostridium perfringens [16]): ≤ 0.015 µg/mL
- MIC90 (Clostridium perfringens [16]): 0.03 µg/mL
- MIC (Atopobium parvulum): 0.5 µg/mL
- MIC [17]: 0.125 µg/mL
- MIC [18]: 0.05 µg/mL
- MIC (Clostridioides difficile [19]): 4 µg/mL
- MIC (Clostridium perfringens [20]): ≤ 0.015 µg/mL
- MIC [21]: 0.03 µg/mL
- MIC [22]: 0.125 µg/mL
- MIC (Bifidobacterium breve): 1 µg/mL
- MIC (Eggerthella lenta [23]): 1 µg/mL
- MIC (Cutibacterium acnes): 2 µg/mL
- MIC [24]: 0.25 µg/mL
- MIC [25]: 0.5 µg/mL
- MIC (Bacteroides fragilis [26]): 0.125 µg/mL
- MIC (Bacteroides fragilis [27]): 2 µg/mL

Structure (SMILES): CCC[C@@H]1C[C@@H](C(=O)N[C@@H]([C@H]2O[C@H](SC)[C@H](O)[C@@H](O)[C@H]2O)[C@H](C)Cl)N(C)C1 [CLINDAMYCIN]
- MIC [1]: 0.06 µg/mL
- MIC (Bacteroides ovatus): 0.5 µg/mL
- MIC (Bacteroides uniformis [2]): ≤ 0.03 µg/mL
- MIC (Campylobacter gracilis): 0.125 µg/mL
- MIC [3]: 16 µg/mL
- MIC (Prevotella denticola): ≤ 0.03 µg/mL
- MIC [5]: ≤ 0.03 µg/mL
- MIC [6]: ≤ 0.03 µg/mL
- MIC (Atopobium parvulum): 1 µg/mL
- MIC [17]: 0.125 µg/mL
- MIC [18]: 0.25 µg/mL
- MIC (Clostridioides difficile [19]): > 128 µg/mL
- MIC [21]: 1 µg/mL
- MIC [22]: ≤ 0.03 µg/mL
- MIC (Bifidobacterium breve): ≤ 0.03 µg/mL
- MIC (Eggerthella lenta [23]): 0.25 µg/mL
- MIC (Cutibacterium acnes): 0.125 µg/mL
- MIC [24]: 0.25 µg/mL
- MIC [25]: ≤ 0.03 µg/mL
- MIC (Bacteroides fragilis [26]): 0.5 µg/mL
- MIC (Bacteroides fragilis [27]): 0.5 µg/mL
